Broadly, the EC50 is the concentration at which the effect is half-maximal. The IC50 is the concentration at which inhibition is half-maximal. One may read the Vd/F as the apparent distribution volume after extravascular dosing. The term inhibition denotes the drop in the measured response relative to a control, in per cent. The term pKi denotes the Ki on a negative log10 scale, so that one unit is a factor of ten. As a reminder, the Tmax is the time at which the peak concentration occurs. In general, Kp refers to tissue or fluid exposure divided by exposure in the circulation. By Cmax is commonly meant the peak of the concentration-time curve. As usually defined, the solubility is how much of the substance goes into solution per volume.

Converted amounts (≈) assume the structure as drawn.

For data set [1], the target named is T1, 5-hydroxytryptamine receptor 1A (Homo sapiens, UniProt P08908).
T1 sequence (P08908 whole entry): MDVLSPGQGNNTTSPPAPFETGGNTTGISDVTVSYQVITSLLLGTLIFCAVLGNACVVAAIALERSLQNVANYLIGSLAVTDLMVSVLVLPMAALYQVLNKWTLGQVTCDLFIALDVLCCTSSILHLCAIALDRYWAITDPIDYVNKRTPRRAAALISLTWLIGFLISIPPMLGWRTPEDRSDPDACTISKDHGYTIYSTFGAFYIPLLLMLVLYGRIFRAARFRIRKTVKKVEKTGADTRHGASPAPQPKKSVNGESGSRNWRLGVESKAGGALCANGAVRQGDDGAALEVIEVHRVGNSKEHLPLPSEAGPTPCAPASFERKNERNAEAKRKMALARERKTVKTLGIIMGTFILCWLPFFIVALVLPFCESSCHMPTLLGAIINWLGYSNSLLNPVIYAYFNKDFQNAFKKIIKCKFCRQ
Briefly: Agonist activity at human 5-HT1A receptor expressed in CHO-K1 cells assessed as stimulation of ERK1/2 phosphorylation incubated for 15 mins by Alpha LISA assay. In kind it is functional, cell-based. For orientation: In Alpha technology, singlet oxygen from a donor bead excites a nearby acceptor bead.

Data set [2] has as its target T2, cAMP and cAMP-inhibited cGMP 3',5'-cyclic phosphodiesterase 10A (Homo sapiens, UniProt Q9Y233). Briefly: Inhibition of PDE10A (unknown origin) preincubated for 20 mins followed by substrate addition and measured after 1 hr by PEDlight AMP detection reagent based luminescence assay.
A short description of data set [3]: Apparent volume of distribution in mouse plasma at 0.625 mg/kg, ip measured up to 480 mins by LC/ESI-MS/MS analysis. It counts as ADME, organism-based.
Data set [4] addresses T2, cAMP and cAMP-inhibited cGMP 3',5'-cyclic phosphodiesterase 10A. Briefly: Inhibition of PDE10A (unknown origin) at 10 uM preincubated for 20 mins followed by substrate addition and measured after 1 hr by PEDlight AMP detection reagent based luminescence assay relative to control. The note with it: time 80.0 min.
Data set [5] has as its target T3, Adrenergic receptor alpha-1 (Homo sapiens, UniProt P35348+P25100+P35368).
T3 sequence (P35348 whole entry): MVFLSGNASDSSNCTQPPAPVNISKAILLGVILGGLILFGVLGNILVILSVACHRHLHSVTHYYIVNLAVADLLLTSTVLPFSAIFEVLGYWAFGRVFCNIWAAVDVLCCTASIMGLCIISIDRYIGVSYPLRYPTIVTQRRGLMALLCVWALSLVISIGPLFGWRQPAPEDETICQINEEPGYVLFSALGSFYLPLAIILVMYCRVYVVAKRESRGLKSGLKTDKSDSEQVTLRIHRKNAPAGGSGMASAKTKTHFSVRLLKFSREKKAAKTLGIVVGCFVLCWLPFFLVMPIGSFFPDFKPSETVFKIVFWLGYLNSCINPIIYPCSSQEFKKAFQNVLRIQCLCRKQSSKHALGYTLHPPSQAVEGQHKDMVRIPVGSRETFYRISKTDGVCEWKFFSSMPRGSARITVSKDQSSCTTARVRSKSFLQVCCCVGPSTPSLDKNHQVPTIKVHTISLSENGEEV
T3 sequence (P25100 whole entry): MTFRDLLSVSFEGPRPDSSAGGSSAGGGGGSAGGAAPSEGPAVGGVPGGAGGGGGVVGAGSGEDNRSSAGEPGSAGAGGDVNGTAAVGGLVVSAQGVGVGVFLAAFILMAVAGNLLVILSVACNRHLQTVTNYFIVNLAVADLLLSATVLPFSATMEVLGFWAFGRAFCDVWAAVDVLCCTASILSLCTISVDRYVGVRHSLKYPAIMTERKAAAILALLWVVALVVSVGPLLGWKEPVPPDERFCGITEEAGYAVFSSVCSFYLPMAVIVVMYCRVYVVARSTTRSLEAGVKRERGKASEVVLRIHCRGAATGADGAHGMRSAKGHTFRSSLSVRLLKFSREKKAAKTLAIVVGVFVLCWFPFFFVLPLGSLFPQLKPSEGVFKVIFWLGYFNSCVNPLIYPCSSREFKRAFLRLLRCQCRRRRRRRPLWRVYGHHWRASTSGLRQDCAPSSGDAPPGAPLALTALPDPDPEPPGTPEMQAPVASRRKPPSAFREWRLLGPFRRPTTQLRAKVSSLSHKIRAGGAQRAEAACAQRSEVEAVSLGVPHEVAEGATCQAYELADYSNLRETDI
T3 sequence (P35368 whole entry): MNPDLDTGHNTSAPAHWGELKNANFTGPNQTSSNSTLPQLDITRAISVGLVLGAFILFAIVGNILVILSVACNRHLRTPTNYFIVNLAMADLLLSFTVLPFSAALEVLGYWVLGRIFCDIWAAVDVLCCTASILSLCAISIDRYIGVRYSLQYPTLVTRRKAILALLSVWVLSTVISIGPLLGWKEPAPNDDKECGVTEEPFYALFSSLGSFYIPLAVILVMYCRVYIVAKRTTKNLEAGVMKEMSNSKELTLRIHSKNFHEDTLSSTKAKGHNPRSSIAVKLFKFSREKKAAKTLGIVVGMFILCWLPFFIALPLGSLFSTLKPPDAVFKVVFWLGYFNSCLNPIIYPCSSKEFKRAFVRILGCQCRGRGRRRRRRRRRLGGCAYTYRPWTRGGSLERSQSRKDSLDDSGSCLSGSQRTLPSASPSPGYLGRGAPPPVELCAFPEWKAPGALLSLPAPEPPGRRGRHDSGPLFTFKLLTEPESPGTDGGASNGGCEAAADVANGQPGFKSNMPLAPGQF
Briefly: Binding affinity to adrenergic alpha 1 receptor (unknown origin). In kind it is protein assay.

The nature of data set [6]: AUC(0 to t) in mouse plasma at 0.625 mg/kg, ip measured up to 480 mins by LC/ESI-MS/MS analysis. In kind it is ADME, organism-based. The arrangement: time < 480 min, dose 0.625 mg/kg, route ip. Particulars: in vivo, 8 h.
Data set [7] can be described thus: Tmax in mouse hippocampus at 0.625 mg/kg, ip by LC/ESI-MS/MS analysis. In kind it is ADME, organism-based.
Data set [8] in a line: Ratio of drug concentration in Hippocampus to plasma in mouse at 0.625 mg/kg, ip by LC/ESI-MS/MS analysis. In kind it is ADME, organism-based. Particulars: hippocampus and plasma.
Data set [9] in a line: Cmax in mouse striatum at 0.625 mg/kg, ip by LC/ESI-MS/MS analysis. In kind it is ADME, organism-based. The arrangement: dose 0.625 mg/kg, route ip.
Data set [10] is described as follows: Ratio of drug concentration in striatum to plasma in mouse at 0.625 mg/kg, ip by LC/ESI-MS/MS analysis. It counts as ADME, organism-based. Particulars: striatum and plasma.
Data set [11] in a line: Tmax in mouse frontal cortex at 0.625 mg/kg, ip by LC/ESI-MS/MS analysis. It counts as ADME, organism-based.
The nature of data set [12]: Cmax in mouse frontal cortex at 0.625 mg/kg, ip by LC/ESI-MS/MS analysis. In kind it is ADME, organism-based. Details: dose 0.625 mg/kg, route ip.
Data set [13] can be described thus: Aqueous solubility of compound in PBS buffer at pH 7.4 by UV absorbance based analysis. It counts as physicochemical.
Data set [14] in a line: Aqueous solubility of compound in simulated intestinal fluid by UV absorbance based analysis. In kind it is physicochemical.
A short description of data set [15]: Permeability of the compound across apical to basolateral side in human Caco-2 cells at pH 6.5. In kind it is ADME, cell-based. Particulars: Caco-2, pH 6.5, read-out: Papp. In general terms: Caco-2 monolayers are a common model of the intestinal barrier.
The next data set concerns Mus musculus. Briefly: Antidepressant activity in Swiss albino mouse assessed as reduction in immobility time at 0.625 mg/kg, ip measured for last 4 mins of 6 mins test by forced swim test. The note with it: 0.1 h. Details: scale not given: the % may be the effect or the level left. In kind it is functional.
Data set [16] in a line: Plasma protein binding in human by LC-MS/MS analysis. The note with it: read-out: PPB (converted). It counts as ADME, cell-free.

T2 sequence (Q9Y233 whole entry): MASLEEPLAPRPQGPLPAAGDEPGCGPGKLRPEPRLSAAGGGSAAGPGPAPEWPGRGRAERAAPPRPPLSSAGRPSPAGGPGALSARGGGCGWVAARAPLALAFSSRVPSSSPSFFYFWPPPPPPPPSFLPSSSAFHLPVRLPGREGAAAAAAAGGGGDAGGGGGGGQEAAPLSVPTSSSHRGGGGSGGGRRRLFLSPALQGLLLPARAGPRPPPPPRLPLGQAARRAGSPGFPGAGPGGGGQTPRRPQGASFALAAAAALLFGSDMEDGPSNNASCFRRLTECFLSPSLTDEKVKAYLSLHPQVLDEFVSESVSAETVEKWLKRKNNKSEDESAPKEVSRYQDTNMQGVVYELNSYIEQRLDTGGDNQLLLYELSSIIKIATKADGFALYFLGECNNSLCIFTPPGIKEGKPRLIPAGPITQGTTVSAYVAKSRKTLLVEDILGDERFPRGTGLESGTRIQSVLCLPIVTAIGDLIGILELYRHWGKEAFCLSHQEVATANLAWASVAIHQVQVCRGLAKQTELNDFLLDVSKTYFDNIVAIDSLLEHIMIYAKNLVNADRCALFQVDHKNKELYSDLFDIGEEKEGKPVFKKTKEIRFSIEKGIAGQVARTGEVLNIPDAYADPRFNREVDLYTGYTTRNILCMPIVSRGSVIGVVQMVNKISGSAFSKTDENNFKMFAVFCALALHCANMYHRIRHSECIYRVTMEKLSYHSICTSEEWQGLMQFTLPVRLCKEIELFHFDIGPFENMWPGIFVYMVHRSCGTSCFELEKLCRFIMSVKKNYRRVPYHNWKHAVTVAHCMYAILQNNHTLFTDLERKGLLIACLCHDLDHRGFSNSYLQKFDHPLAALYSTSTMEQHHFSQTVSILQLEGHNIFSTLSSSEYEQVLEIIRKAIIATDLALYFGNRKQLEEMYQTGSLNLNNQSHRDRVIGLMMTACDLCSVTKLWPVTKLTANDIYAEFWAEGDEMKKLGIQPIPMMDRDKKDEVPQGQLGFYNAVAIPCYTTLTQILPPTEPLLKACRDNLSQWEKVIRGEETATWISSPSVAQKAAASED

Regarding `COc1cc2ncnc(N3CCC(CN4CCN(c5ccc(Cl)cc5)CC4)C3)c2cc1OC` (configuration not stated), the EC50 in [1] is 4.79 µM. In data set [2], this molecule had an IC50 of 1700 nM. Further, in [3], the Vd/F was 0.272 L/kg. The molecule further came in with an inhibition in data set [4] of 21%. Besides, the pKi in [5] is given as 6.11. In addition, the AUCt in data set [6] is 730 ng·min/mL. Moreover, the figures for the Tmax in data set [7] and in [11] were 30 min and 8 h, respectively. Moreover, the figures for the Kp in [8] and in [10] were 85.4 and 87.4, respectively. Moreover, the Cmax was 317 ng/mL in [9] and 327 ng/mL in data set [12]. In addition, the solubility in data set [13] was 187 µM (≈ 87.5 µg/mL); in data set [14], 181 µM (≈ 84.7 µg/mL). For the same molecule, the Papp A→B in data set [15] was 0.26 ×10⁻⁶ cm/s. Further, the Activity in the data set on Mus musculus is 50%. In data set [16], the fraction unbound was 0.018.

The values are drawn from ChEMBL document CHEMBL5143617 (Eur J Med Chem, 2022).
